# Measurements published in ChEMBL document CHEMBL1201862, “PubChem BioAssay data set” (2004).
# Values joined by “and” are separate entries in the source; they are usually repeats but may differ in a detail not shown here. Identical values can stand only once.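 Exposure lasted 48 hours, with cells grown in 96-well plates and compounds tested at five concentrations. GI50 is the concentration that inhibits growth by half.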 Active and inactive are the calls of the source. Cut-off read from the data, not from the text of the source: active = GI50 up to about 1.1 µM and inactive = higher.
# Legend:
# Experiment in all cases: DTP human tumour cell line panel, 48 h
# 786-0 = test system: 786-0
# A549 = test system: A549
# ACHN = test system: ACHN
# CCRF-CEM = test system: CCRF-CEM
# COLO 205 = test system: COLO 205
# DLD-1 = test system: DLD-1
# DMS-114 = test system: DMS-114
# DMS-273 = test system: DMS-273
# EKVX = test system: EKVX
# HCC 2998 = test system: HCC 2998
# HCT-15 = test system: HCT-15
# HL-60 = test system: HL-60
# HOP-62 = test system: HOP-62
# IGROV-1 = test system: IGROV-1
# K562 = test system: K562
# KM12 = test system: KM12
# LOX IMVI = test system: LOX IMVI
# LXFL 529 = test system: LXFL 529
# M14 = test system: M14
# M19-MEL = test system: M19-MEL
# MOLT-4 = test system: MOLT-4
# Malme-3M = test system: Malme-3M
# NCI-H226 = test system: NCI-H226
# NCI-H23 = test system: NCI-H23
# NCI-H522 = test system: NCI-H522
# OVCAR-3 = test system: OVCAR-3
# OVCAR-4 = test system: OVCAR-4
# OVCAR-5 = test system: OVCAR-5
# OVCAR-8 = test system: OVCAR-8
# RPMI-8226 = test system: RPMI-8226
# RXF 393 = test system: RXF 393
# SF-268 = test system: SF-268
# SF-295 = test system: SF-295
# SF-539 = test system: SF-539
# SK-MEL-28 = test system: SK-MEL-28
# SK-MEL-2 = test system: SK-MEL-2
# SK-MEL-5 = test system: SK-MEL-5
# SK-OV-3 = test system: SK-OV-3
# SN12C = test system: SN12C
# SNB-19 = test system: SNB-19
# SNB-75 = test system: SNB-75
# SNB-78 = test system: SNB-78
# SR = test system: SR
# SW-620 = test system: SW-620
# TK-10 = test system: TK-10
# U-251 = test system: U-251
# UACC-257 = test system: UACC-257
# UACC-62 = test system: UACC-62
# UO-31 = test system: UO-31
# XF498 = test system: XF498
# A498 = test system: A498
# BT-549 = test system: BT-549
# CAKI-1 = test system: CAKI-1
# DU-145 = test system: DU-145
# HCT-116 = test system: HCT-116
# HOP-18 = test system: HOP-18
# HOP-92 = test system: HOP-92
# HT-29 = test system: HT-29
# Hs-578T = test system: Hs-578T
# KM-20L2 = test system: KM-20L2
# MCF7 = test system: MCF7
# MDA-MB-231 = test system: MDA-MB-231
# MDA-MB-435 = test system: MDA-MB-435
# MDA-N = test system: MDA-N
# NCI-H460 = test system: NCI-H460
# NCI/ADR-RES = test system: NCI/ADR-RES
# PC-3 = test system: PC-3
# T47D = test system: T47D
compound,measurement,setting,value
CCC1CCc2c(OC)ccc(OCC(=O)O)c2C1=O (stereo unspecified),GI50,786-0,> 100 µM (inactive)
same,GI50,A549,> 100 µM (inactive)
same,GI50,ACHN,> 100 µM (inactive)
same,GI50,CCRF-CEM,> 100 µM (inactive)
same,GI50,COLO 205,> 100 µM (inactive)
same,GI50,DLD-1,> 100 µM (inactive)
same,GI50,DMS-114,> 100 µM (inactive)
same,GI50,DMS-273,> 100 µM (inactive)
same,GI50,EKVX,> 100 µM (inactive)
same,GI50,HCC 2998,> 100 µM (inactive)
same,GI50,HCT-15,> 100 µM
same,GI50,HL-60,> 100 µM (inactive)
same,GI50,HOP-62,> 100 µM (inactive)
same,GI50,IGROV-1,> 100 µM (inactive)
same,GI50,K562,> 100 µM (inactive)
same,GI50,KM12,> 100 µM (inactive)
same,GI50,LOX IMVI,> 100 µM (inactive)
same,GI50,LXFL 529,> 100 µM (inactive)
same,GI50,M14,> 100 µM (inactive)
same,GI50,M19-MEL,> 100 µM (inactive)
same,GI50,MOLT-4,> 100 µM (inactive)
same,GI50,Malme-3M,> 100 µM (inactive)
same,GI50,NCI-H226,> 100 µM (inactive)
same,GI50,NCI-H23,> 100 µM (inactive)
same,GI50,NCI-H522,> 100 µM (inactive)
same,GI50,OVCAR-3,> 100 µM (inactive)
same,GI50,OVCAR-4,> 100 µM (inactive)
same,GI50,OVCAR-5,> 100 µM (inactive)
same,GI50,OVCAR-8,> 100 µM (inactive)
same,GI50,RPMI-8226,> 100 µM (inactive)
same,GI50,RXF 393,> 100 µM (inactive)
same,GI50,SF-268,> 100 µM (inactive)
same,GI50,SF-295,> 100 µM (inactive)
same,GI50,SF-539,> 100 µM (inactive)
same,GI50,SK-MEL-28,> 100 µM (inactive)
same,GI50,SK-MEL-2,> 100 µM (inactive)
same,GI50,SK-MEL-5,> 100 µM (inactive)
same,GI50,SK-OV-3,> 100 µM (inactive)
same,GI50,SN12C,> 100 µM (inactive)
same,GI50,SNB-19,> 100 µM (inactive)
same,GI50,SNB-75,> 100 µM (inactive)
same,GI50,SNB-78,> 100 µM (inactive)
same,GI50,SR,> 100 µM (inactive)
same,GI50,SW-620,> 100 µM (inactive)
same,GI50,TK-10,> 100 µM (inactive)
same,GI50,U-251,> 100 µM (inactive)
same,GI50,UACC-257,> 100 µM (inactive)
same,GI50,UACC-62,> 100 µM (inactive)
same,GI50,UO-31,> 100 µM (inactive)
same,GI50,XF498,> 100 µM (inactive)
COc1ccc(C(C)c2cc3c(cc2OC)OCO3)cc1 (stereo unspecified),GI50,786-0,0.098 µM (active)
same,GI50,A498,0.646 µM (active)
same,GI50,A549,0.218 µM (active)
same,GI50,ACHN,3.01 µM (inactive)
same,GI50,BT-549,51.8 µM (inactive)
same,GI50,CAKI-1,0.107 µM (active)
same,GI50,CCRF-CEM,0.131 µM (active)
same,GI50,COLO 205,0.135 µM (active)
same,GI50,DLD-1,0.225 µM (active)
same,GI50,DMS-114,0.339 µM (active)
same,GI50,DMS-273,0.106 µM (active)
same,GI50,DU-145,0.231 µM (active)
same,GI50,EKVX,17.4 µM (inactive)
same,GI50,HCC 2998,0.193 µM (active)
same,GI50,HCT-116,0.111 µM (active)
same,GI50,HCT-15,0.0723 µM
same,GI50,HL-60,0.0802 µM (active)
same,GI50,HOP-18,0.371 µM (active)
same,GI50,HOP-62,0.124 µM (active)
same,GI50,HOP-92,1.45 µM (inactive)
same,GI50,HT-29,0.0798 µM (active)
same,GI50,Hs-578T,0.0207 µM (active)
same,GI50,IGROV-1,0.104 µM (active)
same,GI50,K562,0.0389 µM (active)
same,GI50,KM-20L2,0.225 µM (active)
same,GI50,KM12,0.119 µM (active)
same,GI50,LOX IMVI,0.205 µM (active)
same,GI50,LXFL 529,0.125 µM (active)
same,GI50,M14,0.0738 µM (active)
same,GI50,M19-MEL,0.395 µM (active)
same,GI50,MCF7,0.0461 µM (active)
same,GI50,MDA-MB-231,0.112 µM (active)
same,GI50,MDA-MB-435,0.0175 µM (active)
same,GI50,MDA-N,0.019 µM (active)
same,GI50,MOLT-4,0.264 µM (active)
same,GI50,Malme-3M,0.0951 µM (active)
same,GI50,NCI-H226,0.416 µM (active)
same,GI50,NCI-H23,0.169 µM (active)
same,GI50,NCI-H460,0.122 µM (active)
same,GI50,NCI-H522,0.0455 µM (active)
same,GI50,NCI/ADR-RES,0.0268 µM (active)
same,GI50,OVCAR-3,0.107 µM (active)
same,GI50,OVCAR-4,49.4 µM (inactive)
same,GI50,OVCAR-5,3.48 µM (inactive)
same,GI50,OVCAR-8,0.269 µM (active)
same,GI50,PC-3,0.0715 µM (active)
same,GI50,RPMI-8226,0.122 µM (active)
same,GI50,RXF 393,0.264 µM (active)
same,GI50,SF-268,0.614 µM (active)
same,GI50,SF-295,0.0611 µM (active)
same,GI50,SF-539,0.1 µM (active)
same,GI50,SK-MEL-28,2.33 µM (inactive)
same,GI50,SK-MEL-2,0.0767 µM (active)
same,GI50,SK-MEL-5,0.0659 µM (active)
same,GI50,SK-OV-3,0.2 µM (active)
same,GI50,SN12C,0.378 µM (active)
same,GI50,SNB-19,2.61 µM (inactive)
same,GI50,SNB-75,0.06 µM (active)
same,GI50,SNB-78,0.612 µM (active)
same,GI50,SR,0.881 µM (active)
same,GI50,SW-620,0.0828 µM (active)
same,GI50,T47D,2.08 µM (inactive)
same,GI50,TK-10,8.95 µM (inactive)
same,GI50,U-251,0.229 µM (active)
same,GI50,UACC-257,7.38 µM (inactive)
same,GI50,UACC-62,0.2 µM (active)
same,GI50,UO-31,0.272 µM (active)
CCCCCCCCCCCCCB(O)O,GI50,CCRF-CEM,> 100 µM (inactive)
same,GI50,DMS-114,> 100 µM (inactive)
same,GI50,DMS-273,> 100 µM (inactive)
same,GI50,M14,> 100 µM (inactive)
same,GI50,NCI-H23,> 100 µM (inactive)
same,GI50,OVCAR-3,> 100 µM (inactive)
same,GI50,OVCAR-5,> 100 µM (inactive)
same,GI50,SK-MEL-2,> 100 µM (inactive)
same,GI50,SNB-19,> 100 µM (inactive)
same,GI50,SW-620,> 100 µM (inactive)
same,GI50,U-251,> 100 µM (inactive)
same,GI50,XF498,> 100 µM (inactive)
N#CCC(=O)N/N=C1/C(=O)N(c2ccc(Cl)cc2)C(=O)C(=O)C1c1nc2ccccc2s1 (stereo unspecified),GI50,786-0,> 100 µM (inactive)
same,GI50,A498,> 100 µM (inactive)
same,GI50,A549,> 100 µM (inactive)
same,GI50,ACHN,> 100 µM (inactive)
same,GI50,CAKI-1,> 100 µM (inactive)
same,GI50,COLO 205,> 100 µM (inactive)
same,GI50,DLD-1,> 100 µM (inactive)
same,GI50,DMS-114,> 100 µM (inactive)
same,GI50,DMS-273,> 100 µM (inactive)
same,GI50,EKVX,89.3 µM (inactive)
same,GI50,HCC 2998,> 100 µM (inactive)
same,GI50,HCT-116,53.7 µM (inactive)
same,GI50,HCT-15,> 100 µM
same,GI50,HOP-62,> 100 µM (inactive)
same,GI50,HOP-92,28.2 µM (inactive)
same,GI50,HT-29,> 100 µM (inactive)
same,GI50,IGROV-1,> 100 µM (inactive)
same,GI50,KM-20L2,> 100 µM (inactive)
same,GI50,KM12,> 100 µM (inactive)
same,GI50,LOX IMVI,38.2 µM (inactive)
same,GI50,LXFL 529,> 100 µM (inactive)
same,GI50,M14,> 100 µM (inactive)
same,GI50,M19-MEL,40.7 µM (inactive)
same,GI50,Malme-3M,> 100 µM (inactive)
same,GI50,NCI-H226,26.3 µM (inactive)
same,GI50,NCI-H23,> 100 µM (inactive)
same,GI50,NCI-H522,46.3 µM (inactive)
same,GI50,OVCAR-3,> 100 µM (inactive)
same,GI50,OVCAR-4,> 100 µM (inactive)
same,GI50,OVCAR-5,> 100 µM (inactive)
same,GI50,OVCAR-8,95.9 µM (inactive)
same,GI50,RXF 393,25.8 µM (inactive)
same,GI50,SF-268,55.5 µM (inactive)
same,GI50,SF-295,> 100 µM (inactive)
same,GI50,SK-MEL-28,> 100 µM (inactive)
same,GI50,SK-MEL-2,89.9 µM (inactive)
same,GI50,SK-MEL-5,> 100 µM (inactive)
same,GI50,SK-OV-3,> 100 µM (inactive)
same,GI50,SN12C,> 100 µM (inactive)
same,GI50,SNB-19,> 100 µM (inactive)
same,GI50,SNB-75,20.8 µM (inactive)
same,GI50,SNB-78,> 100 µM (inactive)
same,GI50,SW-620,> 100 µM (inactive)
same,GI50,TK-10,> 100 µM (inactive)
same,GI50,U-251,> 100 µM (inactive)
same,GI50,UACC-257,65.6 µM (inactive)
same,GI50,UACC-62,60.3 µM (inactive)
same,GI50,UO-31,28.5 µM (inactive)
same,GI50,XF498,> 100 µM (inactive)
CC(=O)c1c(O)c(C)c(O)c2c1OC1=CC(=O)C(C(C)=O)C(=O)C12C (stereo unspecified),GI50,Malme-3M,13.1 µM (inactive) and 23.7 µM (inactive)
same,GI50,SK-MEL-28,14.3 µM (inactive) and 17.1 µM (inactive)
same,GI50,XF498,555 nM (active) and 422 nM (active)
